In US20220296573A1, “NOVEL COMPOUNDS AND PHARMACEUTICAL COMPOSITIONS THEREOF FOR THE TREATMENT OF INFLAMMATORY DISORDERS” (Galapagos NV, priority 2019, published 2022):

Biological target: T1, human IRAK-4 (Homo sapiens, UniProt Q9NWZ3)
T1 construct: purchased Carna Biosciences 09 145
T1 sequence (Q9NWZ3 1-460): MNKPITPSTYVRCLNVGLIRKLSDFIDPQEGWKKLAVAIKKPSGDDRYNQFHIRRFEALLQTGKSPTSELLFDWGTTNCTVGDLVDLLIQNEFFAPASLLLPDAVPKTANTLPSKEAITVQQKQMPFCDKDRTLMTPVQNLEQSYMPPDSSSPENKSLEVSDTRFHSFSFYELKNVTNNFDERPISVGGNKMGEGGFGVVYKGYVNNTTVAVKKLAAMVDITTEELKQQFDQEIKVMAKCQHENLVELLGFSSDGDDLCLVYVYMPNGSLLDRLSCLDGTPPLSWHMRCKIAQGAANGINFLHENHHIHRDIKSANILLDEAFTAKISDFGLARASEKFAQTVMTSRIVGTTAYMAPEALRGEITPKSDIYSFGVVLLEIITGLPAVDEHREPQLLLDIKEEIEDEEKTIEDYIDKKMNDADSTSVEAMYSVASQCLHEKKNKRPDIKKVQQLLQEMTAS
Assay: Phosphorylation IC50 determination for human IRAK-4 (ADP-Glo Kinase Assay)
Settings: human IRAK-4, substrate RIP140, Km ATP; read-out: IRAK4 ADPglo biochemical assay IC50
Procedure: The phosphorylation of the substrate RIP140 (SEQ ID1) by IRAK4 at Km ATP was detected with the ADP-Glo Kinase Assay (Promega, Cat #V9103), a luminescent kinase assay which measures the ADP formed from a kinase reaction. (Zegzouti et al. 2009) In a second step the kinase reaction was terminated and all the remaining ATP was depleted. In a final step the ADP was converted into ATP and this newly synthesized ATP was measured by using a luciferase/luciferin reaction with a luminescent reader. The luminescent signal positively correlated with kinase activity, in particular kinase inhibition giving a decrease of the luminescent signal.
For the semi-automated assay, the positive control (100% inhibition) was prepared by diluting 10 mM staurosporine stock mixture (20 μL) in water (3.8 mL) and DMSO (180 μL), thus resulting in a […] staurosporine solution at 1% DMSO (final concentration after further dilution in the kinase reaction).
For the automated assay, no pre-dilution of the 10 mM staurosporine stock was made. 10 mM staurosporine was spotted directly in the assay plate using acoustic dispensing and complemented with DMSO to result in a similar final concentration as mentioned above.
For the semi-automated assay, the negative control (0% inhibition) was prepared by mixing water (3.8 mL) and DMSO (200 μL) resulting in a final concentration of 1% DMSO after further dilution in the kinase reaction. For the automated assay no pre-dilution of DMSO was done. 100% DMSO was spotted directly on the assay plate.
The assay buffer solution was prepared at a concentration corresponding to 5 fold the final (most diluted) assay concentration by mixing a solution of 125 mM TRIS pH 7.5+0.05% Triton X-100+2.5 mM EGTA (5.27 mL) with 1M mgCl2 (72 μL), 1M DTT (57.6 μL), and 200 mM MnCl2 (360 μL).
For example, for the semi-automated method, the enzyme-substrate mixture was prepared by mixing water (3999 μL), assay buffer solution (1380 μL), 1 mM RIP140 (138 μL—SEQ ID1), and 200 ng/mL IRAK 4 (3.45 μL Carna Biosciences, 09 145).
For semi-automated method, the ATP mixture was prepared at a concentration corresponding to 2.5 fold the final (most diluted) assay concentration of the semi-automated method and 1.5 fold the final (most diluted) assay concentration of the automated method. For example, for the semi-automated method, the ATP mixture was prepared by mixing water (4126 μL), assay buffer solution (1380 μL), and 10 mM ATP (13.80 μL).
The assay are performed either in a semi-automated or fully automated manner. The assay volume and the incubation time of the ADP detection were different accordingly the method used.
The compounds were prepared as a serial dilution of 10 point dose responses with 1/5 dilution steps in 100% DMSO starting from 2 mM highest concentration, diluted 1/20 in water. 1 μL was transferred dry to the assay plates.
On each assay plate 32 wells of each control (positive & negative) were added, followed by 2 μL enzyme-substrate mixture.
The reaction was started by adding 2 μL diluted ATP (final concentration Km ATP) on the assay plates. Plates were centrifuged for a few seconds at 1000 rpm followed by an incubation at r.t. for 120 min.
The reactions were stopped and the unconsumed ATP was depleted by adding 5 μL ADP-glo Reagent (Promega, Cat #V9103) to the reaction. The plates were quickly centrifuged at 1000 rpm and incubated at r.t. for 40 min corresponding to full ATP depletion.
The ADP was converted back to ATP and luciferase and luciferin were introduced to detect ATP by adding 10 μL kinase detection reagent (Promega, Cat #V9103) to the reaction. The plates were centrifuged for a few seconds at 1000 rpm and incubated at r.t. for a further 30 min.
Luminescent read out was performed on an Envision luminescent reader (Perkin Elmer).
For the automated assay, the compounds were prepared as a serial dilution of 10 point dose responses with 1/5 dilution steps in 100% DMSO starting from 2 mM highest concentration. […]

Compound | IC50 [nM]
COc1cc2nc(C3COCCO3)cn2cc1NC(=O)c1cccn(C2CCC2)c1=O (stereo not shown) [Compound 5, 1-cyclobutyl-N-[2-(1,4-dioxan-2-yl)-7-methoxy-imidazo[1,2-a]pyridin-6-yl]-2-oxo-pyridine-3-carboxamide] | 10 to 50
COc1cc2nc(C3CCOCC3)cn2cc1NC(=O)c1cccc(C(F)(F)F)n1 [Compound 2, N-(7-methoxy-2-tetrahydropyran-4-yl-imidazo[1,2-a]pyridin-6-yl)-6-(trifluoromethyl)pyridine-2-carboxamide] | 10 to 50
COc1cc2nc(C3CCOCC3)cn2cc1NC(=O)c1cccn(C2CC2)c1=O [Compound 3, (1-cyclopropyl-N-[7-methoxy-2-(oxan-4-yl)imidazo[1,2-a]pyridin-6-yl]-2-oxopyridine-3-carboxamide)] | 5 to 10
NC(=O)c1cc2nc(C3COCCO3)cn2cc1NC(=O)c1cccc(C(F)(F)F)n1 (stereo not shown) [Compound 6, 2-(1,4-dioxan-2-yl)-6-[[6-(trifluoromethyl)pyridine-2-carbonyl]amino]imidazo[1,2-a]pyridine-7-carboxamide] | 5 to 10
CC(F)(F)c1cccc(C(=O)Nc2cn3cc(C4COCCO4)nc3cc2C(N)=O)n1 (stereo not shown) [Compound 11, 6-(6-(1,1-difluoroethyl)picolinamido)-2-(1,4-dioxan-2-yl)imidazo[1,2-a]pyridine-7-carboxamide] | 5 to 10

Continued, values first:

IC50 [nM] | Compound
5 to 10 | COc1cc2nc(C3COCCO3)cn2cc1NC(=O)c1cccn(C2CC2)c1=O (racemic) [Compound 1, 1-cyclopropyl-N-[2-(1,4-dioxan-2-yl)-7-methoxy-imidazo[1,2-a]pyridin-6-yl]-2-oxo-pyridine-3-carboxamide]
5 to 10 | COc1cc2nc(C3COCCO3)cn2cc1NC(=O)c1cccn(C2CC2)c1=O (single isomer, unassigned) [Compound 8, 1-cyclopropyl-N-[2-(1,4-dioxan-2-yl)-7-methoxy-imidazo[1,2-a]pyridin-6-yl]-2-oxo-pyridine-3-carboxamide]
5 to 10 | CNC(=O)c1cc2nc(C3COCCO3)cn2cc1NC(=O)c1cccc(C(F)(F)F)n1 (stereo not shown) [Compound 9, 2-(1,4-dioxan-2-yl)-N-methyl-6-(6-(trifluoromethyl)picolinamido)imidazo[1,2-a]pyridine-7-carboxamide]
5 to 10 | COc1cc2nc(C3COCCO3)cn2cc1NC(=O)c1cccn(C2CC2)c1=O (single isomer, unassigned) [Compound 7, 1-cyclopropyl-N-[2-(1,4-dioxan-2-yl)-7-methoxy-imidazo[1,2-a]pyridin-6-yl]-2-oxo-pyridine-3-carboxamide]
0.1 to 5 | COc1cc2nc(C3CCS(=O)(=O)CC3)cn2cc1NC(=O)c1cccn(C2CC2)c1=O [Compound 23, 1-cyclopropyl-N-(2-(1,1-dioxidotetrahydro-2H-thiopyran-4-yl)-7-methoxyimidazo[1,2-a]pyridin-6-yl)-2-oxo-1,2-dihydropyridine-3-carboxamide]
